From patent US20250051355A1, “COMPOUNDS, COMPOSITIONS, AND METHODS” (ACONCAGUA BIO, INC., priority 2023, published 2025)

Key:
[1] = target: T1, human calcitonin receptor (CTR) (Homo sapiens, UniProt P30988); test: Calcitonin receptor (CTR) cAMP Assay; type: cell-based; settings: COS7-human CTR Clone #2 cells, cAMP dynamic 2 kit; read-out: Calcitonin Receptor cAMP Stimulation Activity: EC50
T1 construct: expressed in transfected cells; host or cells: COS-7 (COS7-human CTR Clone #2)
T1 sequence (P30988 25-474): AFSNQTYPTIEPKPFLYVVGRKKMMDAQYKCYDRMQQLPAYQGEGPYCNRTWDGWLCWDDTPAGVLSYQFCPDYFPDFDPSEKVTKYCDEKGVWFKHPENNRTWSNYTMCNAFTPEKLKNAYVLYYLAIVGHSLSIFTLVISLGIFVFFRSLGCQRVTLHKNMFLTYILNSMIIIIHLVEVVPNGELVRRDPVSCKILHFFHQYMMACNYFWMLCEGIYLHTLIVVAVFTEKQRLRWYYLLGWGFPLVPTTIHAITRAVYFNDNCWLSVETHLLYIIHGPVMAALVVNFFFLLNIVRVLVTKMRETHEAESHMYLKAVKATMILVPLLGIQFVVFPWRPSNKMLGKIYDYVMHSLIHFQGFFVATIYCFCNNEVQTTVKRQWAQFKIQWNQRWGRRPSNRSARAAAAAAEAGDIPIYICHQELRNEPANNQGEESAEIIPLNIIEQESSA
Description: Calcitonin receptor (CTR) cAMPAssay
The calcitonin receptor (CTR) belongs to the subfamily of GPCRs known as the secretin or ‘B’ family of GPCRs. Like other class B1 GPCRs, the CT receptor family is canonically coupled to Gs-mediated cAMP production, and measurement of cAMP accumulation has been the primary assay used to determine peptide selectivity and potency.
(§1) To optimize functional activity directed toward Gas coupling, COS-7 cells were stably transfected with human calcitonin receptor (CTR) to create COS7-human CTR Clone #2 stable cell line. 100× concentration of compound working solutions were prepared with 4-fold serial dilution in 384-well Echo LDV plate (Labcyte, Cat #LP-0200-BC). 200 nL/well 100×concentration of compound working solutions were moved to 384-well white microplate (Perkin Elmer, Cat #6007680) using Labcyte ECHO550. […] cells/mL COS7-human CTR Clone #2 cell suspensions prepared with assay buffer [HBSS containing 20 mM HEPES (Gibco, Cat #15630-080), 0.5 mM IBMX (Sigma, Cat #15879) and 0.1% Casein (Sigma, Cat #C4765)], 20 μL cell suspensions were added to each well of previous generated assay plate which already contains 200 nL compound at 100×concentration using ThermoFisher Multidrop Combi (2000 cells/well). Seal the plate and incubate at 37° C. with 5% CO2 for 30 min.
(§2) After incubation, the cAMP assay signal was generated using cAMP dynamic 2 kit (Revvity, Cat #62AM4PEC). 10 L cAMP-d2 working solution was added to each well, followed by 10 μL Anti-cAMP antibody-cryptate working solution which was added to each well using CERTUS FLEX LIQUID DISPENSER The samples were then incubated at room temperature for 1 hour protected from light. the fluorescence was read at 665 and 615 nm with Reader PerkinElmer EnVision 2105.

[2] = target: human calcitonin receptor (CTR) and RAMP3 (AMY3) (Homo sapiens, UniProt O60896+P30988); test: Amylin Receptor cAMP Assay II; type: cell-based; settings: COS-7/AMY3 cells, cAMP dynamic 2 kit, read-out: Amylin Receptor cAMP Stimulation Activity: EC50
human calcitonin receptor (CTR) and RAMP3 (AMY3), sequence (O60896 24-148, one chain of several): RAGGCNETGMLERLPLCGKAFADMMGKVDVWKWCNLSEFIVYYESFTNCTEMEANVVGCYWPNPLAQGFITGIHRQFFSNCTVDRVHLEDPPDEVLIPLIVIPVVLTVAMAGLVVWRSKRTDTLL
Description: Amylin Receptor cAMPAssay II
AMYRs are heterodimers of the class B calcitonin (CT) G-protein-coupled receptor (CTR) and receptor activity-modifying proteins (RAMPs). All three RAMPs can interact with the CTR and form AMY1, AMY2, AMY3 with RAMP1, RAMP2 and RAMP3, respectively. Like other class B1 GPCRs, the CT receptor family is canonically coupled to Gs-mediated cAMP production, and measurement of cAMP accumulation has been the primary assay used to determine peptide selectivity and potency.
as §1, with “and RAMP3, simultaneously. 100×concentration” for “to create COS7-human CTR Clone #2 stable cell line. 100× concentration”, “COS-7/AMY3” for “COS7-human CTR Clone #2”
as §2, with “10 μL” for “10 L”

EC50 [1] | EC50 [2] | SMILES
4380 nM | > 100 nM | Cc1nnc(-c2c(CCC3CCOCC3)nc3c(c2-c2cn4c(N[C@@H]5CCc6ncccc65)cccc4n2)S(=O)(=O)CC3C(C)C)o1 (stereo partly drawn) [Compound 87, N—(R)-4-aza-1-indanyl(2-(3-isopropyl-6-(5-methyl-1,3,4-oxadiazol-2-yl)-1,1-dioxo-5-[2-(tetrahydro-2H-pyran-4-yl)ethyl]-1λ^6-thia-4-aza-7-indanyl}-1,3a-diaza-4-indenyl)amine]
11.7 nM | 128 nM | Cc1nnc(-c2c(CCC3CCOCC3)nc3c(c2-c2cnc4c(ccn4Cc4ccc(C#N)c(F)c4)c2)S(=O)(=O)N2CCC[C@@H]32)o1 [Compound 126, 4-[(5-{(2S)-10-(5-methyl-1,3,4-oxadiazol-2-yl)-7,7-dioxo-11-[2-(tetrahydro-2H-pyran-4-yl)ethyl]-7λ^6-thia-6,12-diazatricyclo[6.4.0.0^2,6]dodeca-1(12),8,10-trien-9-yl}-1H-1,7-diazainden-1-yl)methyl]-2-fluorobenzonitrile]
34.9 nM | 309 nM | Cc1nnc(-c2c(CCC3CC(C)OC(C)C3)nc3c(c2-c2cc4ccnc(N[C@@H]5CCc6ncccc65)c4s2)S(=O)(=O)CC3C(C)C)o1 (stereo partly drawn) [Compound 136, N—(R)-4-aza-1-indanyl(2-(5-[2-(2,6-dimethyltetrahydro-2H-pyran-4-yl)ethyl]-3-isopropyl-6-(5-methyl-1,3,4-oxadiazol-2-yl)-1,1-dioxo-1λ^6-thia-4-aza-7-indanyl}-1-thia-6-aza-7-indenyl)amine]
50 nM | 265 nM | Cc1noc(-c2c(CCC3CCOCC3)nc3c(c2-c2cc4ccnc(N[C@@H]5CCc6ncccc65)c4s2)S(=O)(=O)CC3C(C)C)n1 (stereo partly drawn) [Compound 102, N—(R)-4-aza-1-indanyl(2-(3-isopropyl-6-(3-methyl-1,2,4-oxadiazol-5-yl)-1,1-dioxo-5-[2-(tetrahydro-2H-pyran-4-yl)ethyl]-1λ^6-thia-4-aza-7-indanyl}-1-thia-6-aza-7-indenyl)amine]
71 nM | 508 nM | Cc1nnc(-c2c(CCC3CCOCC3)nc3c(c2-c2cc4ccnc(N[C@@H]5CCc6ncccc65)c4s2)C(=O)N[C@H]3C(C)C)o1 [Compound 76]
242 nM | 5880 nM | Cc1nnc(-c2c(C(C)C)nc3c(c2-c2ccc4c(c2)OCC(=O)N4Cc2ccc(F)cn2)C(=O)N2CCC[C@@H]32)o1 [Compound 158, 7-((2S)-11-isopropyl-10-(5-methyl-1,3,4-oxadiazol-2-yl)-7-oxo-6,12-diazatricyclo[6.4.0.0^2,6]dodeca-1(12),8,10-trien-9-yl}-4-[(5-fluoro-2-pyridyl)methyl]-2,4-dihydro-1,4-benzoxazin-3-one]
6.35 nM | 79.4 nM | Cc1nnc(-c2c(CCC3CCOCC3)nc3c(c2-c2cnc4c(ccn4Cc4ccc(C#N)c(F)c4)c2)C(=O)N[C@H]3C(C)C)o1 [Compound 143, 4-[(5-{(S)-3-isopropyl-6-(5-methyl-1,3,4-oxadiazol-2-yl)-1-oxo-5-[2-(tetrahydro-2H-pyran-4-yl)ethyl]-2,4-diaza-7-indanyl}-1H-1,7-diazainden-1-yl)methyl]-2-fluorobenzonitrile]
3 nM | 168 nM | Cc1nnc(-c2c(CCc3ccc(F)cc3)nc3c(c2-c2ccc(C(=O)NCc4ccc(F)c(F)c4)s2)C(=O)N2CCOC[C@@H]32)o1 [Compound 68, (R)—N-(3,4-difluorobenzyl)-5-(2-(4-fluorophenethyl)-3-(5-methyl-1,3,4-oxadiazol-2-yl)-5-oxo-7,8,10,10a-tetrahydro-5H-pyrido[2′,3′:3,4]pyrrolo[2,1-c][1,4]oxazin-4-yl)thiophene-2-carboxamide]
4.46 nM | 211 nM | Cc1nnc(-c2c(CCC3CCOCC3)nc3c(c2-c2ccc4c(c2)oc(=O)n4Cc2ccc(C#N)cn2)S(=O)(=O)CC3C(C)C)o1 (stereo not shown) [Compound 129, 6-[(6-(3-isopropyl-6-(5-methyl-1,3,4-oxadiazol-2-yl)-1,1-dioxo-5-[2-(tetrahydro-2H-pyran-4-yl)ethyl]-1λ^6-thia-4-aza-7-indanyl}-2-oxo-1,3-benzoxazol-3-yl)methyl]nicotinonitrile]
26.9 nM | 596 nM | Cc1nnc(-c2c(C(C)C)nc3c(c2-c2ccc4c(c2)OC(C)(C)C(=O)N4Cc2ccc(F)cn2)C(=O)N2CC4CC32C4)o1 [Compound 160, 4-[(5-fluoro-2-pyridyl)methyl]-7-[4-isopropyl-5-(5-methyl-1,3,4-oxadiazol-2-yl)-8-oxo-3,9-diazatetracyclo[9.1.1.0^1,9.0^2,7]trideca-2,4,6-trien-6-yl]-2,2-dimethyl-4H-1,4-benzoxazin-3(2H)-one]
6.17 nM | 78.8 nM | Cc1cc(-c2c(CCC3CCOCC3)nc3c(c2-c2ccc4c(c2)oc(=O)n4Cc2ccc(C#N)cn2)S(=O)(=O)N2CCC[C@@H]32)ccn1 [Compound 145, 6-[(6-((2S)-10-(2-methyl-4-pyridyl)-7,7-dioxo-11-[2-(tetrahydro-2H-pyran-4-yl)ethyl]-7λ^6-thia-6,12-diazatricyclo[6.4.0.0^2,6]dodeca-1(12),8,10-trien-9-yl}-2-oxo-1,3-benzoxazol-3-yl)methyl]nicotinonitrile]
65.1 nM | 839 nM | Cc1cc(-c2c(CCC3CCOCC3)nc3c(c2-c2ccc4c(c2)oc(=O)n4Cc2ncc(Cl)cc2F)C(=O)N2CCC[C@@]32C)ccn1 [Compound 148, 6-((2S)-2-methyl-10-(2-methyl-4-pyridyl)-7-oxo-11-[2-(tetrahydro-2H-pyran-4-yl)ethyl]-6,12-diazatricyclo[6.4.0.0,^1I]dodeca-1(12),8,10-trien-9-yl}-3-[(5-chloro-3-fluoro-2-pyridyl)methyl]-1,3-benzoxazol-2(3H)-one]
332 nM | 1490 nM | Cc1nnc(-c2c(CCC3CCOCC3)nc3c(c2-c2cc4ccnc(NCc5ccc(C#N)nc5)c4s2)S(=O)(=O)CC3C(C)C)o1 (stereo not shown) [Compound 131, 5-[(2-(3-isopropyl-6-(5-methyl-1,3,4-oxadiazol-2-yl)-1,1-dioxo-5-[2-(tetrahydro-2H-pyran-4-yl)ethyl]-1λ^6-thia-4-aza-7-indanyl}-1-thia-6-aza-7-indenylamino)methyl]-2-pyridinecarbonitrile]
95.6 nM | 1080 nM | Cc1nnc(-c2c(CCC3CCOCC3)nc3c(c2-c2cc4ccnc(N[C@@H]5CCc6ncccc65)c4s2)c(=O)n2n3CCC2)o1 [Compound 113, 9-{7-[(R)-4-aza-1-indanylamino]-1-thia-6-aza-2-indenyl}-10-(5-methyl-1,3,4-oxadiazol-2-yl)-11-[2-(tetrahydro-2H-pyran-4-yl)ethyl]-2,6,12-triazatricyclo[6.4.0.0^2,6]dodeca-1(12),8,10-trien-7-one]
